The source of these data is ChEMBL document CHEMBL3045684, “Compatibility of traditional and novel acaricides with bumblebees (Bombus terrestris): a first laboratory assessment of toxicity and sublethal effects” (Pest Manag Sci, 2010).

Assay [1] concerns Bombus terrestris. The experiment in a line: Toxicity against worker Bombus terrestris (bumblebee) assessed as mortality at 18 mg a.i./l, po administered through sugar water measured after 1 week. The format is functional. To be noted: 168 h.
For assay [2], the system named is Bombus terrestris. Put plainly: Toxicity against worker Bombus terrestris (bumblebee) assessed as reduction in reproduction at 18 mg a.i./l, po administered through pollen for 11 weeks measured once a week for 11 weeks. The format is functional, organism-based.
Assay [3] relates to Bombus terrestris. Put plainly: Toxicity against worker Bombus terrestris (bumblebee) assessed as mortality at 18 mg a.i./l, po administered through sugar water measured after 11 weeks. In kind it is functional. To be noted: 1848 h.
Assay [4] relates to Bombus terrestris. The experiment in a line: Toxicity against worker Bombus terrestris (bumblebee) assessed as mortality at 18 mg a.i./l, po administered through sugar water for 11 weeks measured everyday for 3 days followed by once a week for 11 weeks. In kind it is functional.
Assay [5] concerns Bombus terrestris. Put plainly: Contact toxicity against worker Bombus terrestris (bumblebee) assessed as mortality at 18 mg a.i./l applied on the dorsal thorax for 11 weeks measured everyday for 3 days followed by once a week for 11 weeks. The format is functional.
The test system of assay [6] is Apis mellifera. The experiment in a line: Contact toxicity against Apis mellifera (honey bee) assessed per bee after 24 hr. In kind it is functional.
The subject of assay [7] is Bombus terrestris. The experiment in a line: Toxicity against worker Bombus terrestris (bumblebee) assessed as mortality at 18 mg a.i./l, po administered through pollen measured after 3 weeks. The format is functional. To be noted: 504 h.
Assay [8] has as its system Apis mellifera. The experiment in a line: Toxicity against po dosed Apis mellifera (honey bee) assessed per bee after 24 hr. The format is functional.
Assay [9] concerns Bombus terrestris. Put plainly: Toxicity against worker Bombus terrestris (bumblebee) assessed as mortality at 18 mg a.i./l, po administered through sugar water measured after 9 weeks. In kind it is functional. To be noted: 1512 h.
In assay [10] the test system is Bombus terrestris. The experiment in a line: Toxicity against worker Bombus terrestris (bumblebee) assessed as mortality at 18 mg a.i./l, po administered through sugar water measured after 7 weeks. The conditions noted are these: 1176 h. The format is functional.
Assay [11] relates to Bombus terrestris. Put plainly: Contact toxicity against worker Bombus terrestris (bumblebee) assessed as reduction in reproduction at 18 mg a.i./l applied on the dorsal thorax for 11 weeks measured once a week for 11 weeks relative to control. In kind it is functional, organism-based.
Assay [12] concerns Bombus terrestris. Put plainly: Contact toxicity against worker Bombus terrestris (bumblebee) assessed as mortality at 18 mg a.i./l applied on the dorsal thorax measured after 3 to 4 weeks. The format is functional, organism-based.
Assay [13] relates to Bombus terrestris. Put plainly: Toxicity against worker Bombus terrestris (bumblebee) assessed as mortality at 18 mg a.i./l, po administered through pollen measured after 7 weeks. The format is functional. The conditions noted are these: 1176 h.
The test system of another assay is Aphidius colemani. Put plainly: Contact toxicity against Aphidius colemani assessed as mortality at 8.5 mg a.i./l. The format is functional.
Assay [14] has as its system Bombus terrestris. Put plainly: Toxicity against po dosed worker Bombus terrestris (bumblebee) administered through sugar water for 11 weeks measured everyday for 3 days followed by once a week for 11 weeks. The format is functional.
Assay [15] deals with Bombus terrestris. The experiment in a line: Toxicity against worker Bombus terrestris (bumblebee) assessed as mortality at 18 mg a.i./l, po administered through pollen for 11 weeks measured everyday for 3 days followed by once a week for 11 weeks. The format is functional.
For assay [16], the system named is Bombus terrestris. Put plainly: Toxicity against worker Bombus terrestris (bumblebee) assessed as mortality at 30 mg a.i./l, po administered through pollen for 11 weeks measured everyday for 3 days followed by once a week for 11 weeks. In kind it is functional.
Assay [17] relates to Bombus terrestris. The experiment in a line: Toxicity against worker Bombus terrestris (bumblebee) assessed as mortality at 30 mg a.i./l, po administered through sugar water for 11 weeks measured everyday for 3 days followed by once a week for 11 weeks. In kind it is functional.
The subject of assay [18] is Bombus terrestris. The experiment in a line: Contact toxicity against worker Bombus terrestris (bumblebee) assessed as reduction in reproduction at 30 mg a.i./l applied on the dorsal thorax for 11 weeks measured once a week for 11 weeks relative to control. In kind it is functional, organism-based.
Assay [19] deals with Bombus terrestris. Put plainly: Toxicity against worker Bombus terrestris (bumblebee) assessed as mortality at 30 mg a.i./l, po administered through pollen measured after 7 weeks. In kind it is functional. The conditions noted are these: 1176 h.
Assay [20] concerns Bombus terrestris. The experiment in a line: Toxicity against worker Bombus terrestris (bumblebee) assessed as reduction in reproduction at 30 mg a.i./l, po administered through pollen for 11 weeks measured once a week for 11 weeks. The format is functional. Also on record: scale not given: the % may be the effect or the level left.
For assay [21], the system named is Bombus terrestris. Put plainly: Contact toxicity against worker Bombus terrestris (bumblebee) assessed as mortality at 30 mg a.i./l applied on the dorsal thorax for 11 weeks measured everyday for 3 days followed by once a week for 11 weeks. In kind it is functional.
In assay [22] the test system is Bombus terrestris. The experiment in a line: Contact toxicity against worker Bombus terrestris (bumblebee) assessed as mortality at 30 mg a.i./l applied on the dorsal thorax measured up to 1 week. The format is functional, organism-based.

Molecules are shown by their SMILES. Active and inactive are the calls of the source. The calls are words filed in the database; no cut-off is given here.

What is called mortality is the percentage killed. Usually NOAEL stands for the highest dose or exposure tested at which no adverse effect was seen. On to `CC[C@H](C)[C@H]1O[C@]2(C=C[C@@H]1C)C[C@@H]1C[C@@H](C/C=C(\C)[C@@H](O[C@H]3C[C@H](OC)[C@@H](O[C@H]4C[C@H](OC)[C@@H](O)[C@H](C)O4)[C@H](C)O3)[C@@H](C)/C=C/C=C3\CO[C@@H]4[C@H](O)C(C)=C[C@@H](C(=O)O1)[C@]34O)O2.CO[C@H]1C[C@H](O[C@H]2[C@H](C)O[C@@H](O[C@@H]3/C(C)=C/C[C@@H]4C[C@@H](C[C@]5(C=C[C@H](C)[C@@H](C(C)C)O5)O4)OC(=O)[C@@H]4C=C(C)[C@@H](O)[C@H]5OC/C(=C\C=C\[C@@H]3C)[C@]54O)C[C@@H]2OC)O[C@@H](C)[C@@H]1O` [ABAMECTIN], for which the mortality at 18 µg/mL in the assay with Bombus terrestris [1] turned out to be 20%; in the assay with Bombus terrestris [3], 100%; in the assay with Bombus terrestris [4], 95%; with Bombus terrestris [5], 100%; in the assay with Bombus terrestris [7], 40%; in the assay with Bombus terrestris [9] it was 80%. Besides, the mortality at 18 µg/mL amounted to 40% in the assay on Bombus terrestris [10], 60% in the assay with Bombus terrestris [13] and 90% in the assay with Bombus terrestris [15]. Further, the result in the assay with Bombus terrestris [2], with Bombus terrestris [11] and in the assay on Bombus terrestris [12] was Active. In addition, the LD50 stood at 0.002 µg with Apis mellifera [6] and 0.009 µg with Apis mellifera [8]. Further, in the assay on Aphidius colemani, the mortality at 8.5 µg/mL turned out to be 100%. For the same compound, the LC50 with Bombus terrestris [14] is 1.17 mgAi/L. In addition, in the assay with Bombus terrestris [14], the NOAEL is 0.18 mgAi/L.

In the case of `Cc1c(COC(=O)[C@@H]2[C@H](/C=C(\Cl)C(F)(F)F)C2(C)C)cccc1-c1ccccc1` (relative stereo) [BIFENTHRIN], the mortality at 30 µg/mL with Bombus terrestris [16] amounted to 90%; with Bombus terrestris [17] it was 50%; with Bombus terrestris [19] it was 100%; in the assay on Bombus terrestris [21], 100%. Also, the result in the assay with Bombus terrestris [18] and in the assay on Bombus terrestris [22] was Active. Besides, in the assay with Bombus terrestris [20], the Activity was found to be 50%. The compound also displayed an LC50 in the assay on Bombus terrestris [14] of 0.36 mgAi/L. Also, the NOAEL with Bombus terrestris [14] was found to be 0.03 mgAi/L.
